# Test results reported in paper PMC11256326, “Discovery of Heparin Mimetic, Potent, and Selective Inhibitors of Human Clotting Factor XIIIa” (ACS Omega, 2024).
# Biological target: T1, FXIIIa (Homo sapiens, UniProt P00488)
# T1 construct: purchased Haematologic Technologies; host or cells: human plasma
# T1 sequence (P00488 39-732 limits assumed): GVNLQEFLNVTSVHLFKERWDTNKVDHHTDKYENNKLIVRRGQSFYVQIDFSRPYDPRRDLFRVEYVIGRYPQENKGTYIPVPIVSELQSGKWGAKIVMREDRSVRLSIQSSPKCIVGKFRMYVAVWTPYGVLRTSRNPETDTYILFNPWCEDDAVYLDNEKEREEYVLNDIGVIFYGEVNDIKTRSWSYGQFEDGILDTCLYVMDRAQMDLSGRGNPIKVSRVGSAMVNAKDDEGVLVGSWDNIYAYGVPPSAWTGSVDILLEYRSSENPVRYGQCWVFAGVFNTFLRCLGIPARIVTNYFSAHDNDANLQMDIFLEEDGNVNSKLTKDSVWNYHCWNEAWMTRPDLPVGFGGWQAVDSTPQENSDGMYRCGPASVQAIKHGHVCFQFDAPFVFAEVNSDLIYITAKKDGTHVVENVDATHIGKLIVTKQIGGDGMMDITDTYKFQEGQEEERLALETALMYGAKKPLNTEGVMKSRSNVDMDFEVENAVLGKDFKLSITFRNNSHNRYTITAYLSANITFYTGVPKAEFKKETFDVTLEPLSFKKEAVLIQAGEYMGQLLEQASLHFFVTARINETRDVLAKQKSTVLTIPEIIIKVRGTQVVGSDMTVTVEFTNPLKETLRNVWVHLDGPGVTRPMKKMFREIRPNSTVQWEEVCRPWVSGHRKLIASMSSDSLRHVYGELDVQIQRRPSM
# Assay: bisubstrate, fluorescence-based trans-glutamination assay
# Type: biochemical
# Conditions: for HS (Hill slope), FXIIIa inhibition: logistic fit eq 1; for IC50: pH 7.4, 37 °C, substrates dansylcadaverine and N,N-dimethylcasein
# Text: A series of 27 sulfonated molecules (Figure 3) was screened for inhibition of human FXIIIa using a modified bisubstrate, fluorescence-based trans-glutamination assay, as described earlier.[36],[49] Dansylcadaverine and N,N-dimethylcasein were used as two substrates, which upon FXIIIa-dependence conjugation show a marked increase in fluorescence at 550 nm (λEX = 360 nm). The sulfonated molecules were structurally diverse given their number of anionic groups (mono- (inhibitors 24–27) to octa- (inhibitor 9)), number of building blocks (monomeric (molecules 26–29) to […] (inhibitor 14)), and the nature of the building block of oligomeric derivatives (benzamide derivatives (inhibitors 3–10, 24, and 25), triazine derivatives (inhibitors 11–14), and azo-naphthalene derivatives (molecules 15–22), and ureido-naphthalene derivative (23)) (Figure 3).
# To measure the potency and efficacy of these inhibitors, the dose-dependence of FXIIIa inhibition was evaluated using logistic eq 1 (Table 1). The potency of inhibition refers to the IC50 (x-axis), whereas the efficacy refers to the net change in residual FXIIIa activity (ΔY%) (y-axis). Iodoacetamide, a nonselective inhibitor of thiol-containing enzymes, was used as a positive control.
# To evaluate the effect of sulfonated molecules on human FXIIIa, a bisubstrate, fluorescence-based trans-glutamination assay was performed as we reported previously.[36],[49] Generally, 1 μL of the sulfonated molecule was diluted with 87 μL of pH 7.4 buffer (50 mM Tris-HCl, 1 mM CaCl2, 100 mM NaCl, and 2 mg/mL N,N-dimethylcasein) and 5 μL dithiothreitol (20 mM) at 37 °C followed by the addition of 2 μL of human FXIIIa (0.3 μM) and incubation for 10 min. The activity of FXIIIa was monitored following the addition of 5 μL of dansylcadaverine (2 mM) by measuring the initial rate of increase in fluorescence emission (λEx. = 360 nm and λEm. = 550 nm). Relative residual FXIIIa activity at each concentration of the inhibitor was calculated from the ratio of FXIIIa activity in the presence and absence of the inhibitor. Logistic eq 1 was used to fit the concentration dependence of residual FXIIIa activity to obtain the potency (IC50) and efficacy (ΔY%) of inhibition. [drawing 1] 1
# This equation defines Y as the ratio of residual FXIIIa activity with the inhibitor present compared to its absence. YM represents the maximum possible value of residual FXIIIa activity, while YO denotes the minimum possible value. IC50 signifies the concentration of the inhibitor causing 50% enzyme activity inhibition, and HS represents the Hill slope. Determination of YM, YO, IC50, and HS values is achieved through nonlinear curve fitting of the experimental data.
"HS (Hill slope), FXIIIa inhibition",SMILES,IC50 [µM]
1.1 ± 0.1,Nc1c(/N=N/c2ccc(Nc3nc(Cl)nc(Nc4cccc(S(=O)(=O)O)c4)n3)cc2S(=O)(=O)O)c(S(=O)(=O)O)cc2c(O)c(/N=N/c3ccc(Nc4nc(Cl)nc(Nc5cccc(S(=O)(=O)O)c5)n4)cc3S(=O)(=O)O)ccc12 [compound 14],5.1 ± 0.3
0.7 ± 0.03,Nc1c(S(=O)(=O)O)cc(Nc2ccc(Nc3nc(Cl)nc(Nc4ccccc4S(=O)(=O)O)n3)c(S(=O)(=O)O)c2)c2c1C(=O)c1ccccc1C2=O [compound 13],3.1 ± 0.3
1.5 ± 0.6,Cc1cc(-c2ccc(/N=N/c3ccc4c(S(=O)(=O)O)cc(S(=O)(=O)O)c(N)c4c3O)c(C)c2)ccc1/N=N/c1ccc2c(S(=O)(=O)O)cc(S(=O)(=O)O)c(N)c2c1O [compound 18],–

SMILES,"HS (Hill slope), FXIIIa inhibition",IC50 [µM]
Nc1c(/N=N/c2ccc(S(=O)(=O)CCOS(=O)(=O)O)cc2)c(S(=O)(=O)O)cc2cc(S(=O)(=O)O)c(/N=N/c3ccc(S(=O)(=O)CCOS(=O)(=O)O)cc3)c(O)c12 [compound 16],0.8 ± 0.1,2.4 ± 0.5
COc1cc(-c2ccc(/N=N/c3ccc4c(S(=O)(=O)O)cc(S(=O)(=O)O)c(N)c4c3O)c(OC)c2)ccc1/N=N/c1ccc2c(S(=O)(=O)O)cc(S(=O)(=O)O)c(N)c2c1O [compound 19],1.4 ± 0.4,13.9 ± 2.6
